Experimental data reported in PubChem BioAssay (NCI).
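Cells were grown in 96-well plates and exposed to each compound for 48 hours at five concentrations; endpoints were interpolated linearly between bracketing concentrations, or set to the highest concentration if not reached. Abbreviation: GI50, concentration required for 50% inhibition of growth. TGI denotes the concentration required for complete inhibition of growth.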 Activity calls are given as the source filed them. No stated cut-off is given here; in the data, active means GI50 below about 0.43 µM; inactive means the rest.

Columns and labels:
Experiment in all cases: NCI-60 cell line screen, 48 h
HCT-116 colon = test system: HCT-116 colon
HCT-15 colon = test system: HCT-15 colon
HL-60(TB) leukemia = test system: HL-60(TB) leukemia
NCI-H226 lung = test system: NCI-H226 lung
OVCAR-5 ovarian = test system: OVCAR-5 ovarian
SF-295 CNS = test system: SF-295 CNS
SF-539 CNS = test system: SF-539 CNS

Work on `Cc1ccc(C#CS(=O)(=O)C(F)(F)F)cc1` yielded a TGI (HCT-116 colon) greater than 100 µM, a TGI (HCT-15 colon) greater than 100 µM and a TGI (HL-60(TB) leukemia) greater than 31.6 µM. It also gave a TGI (NCI-H226 lung) greater than 100 µM, a TGI (OVCAR-5 ovarian) greater than 100 µM and a TGI (SF-295 CNS) greater than 31.6 µM. It also gave a TGI (SF-539 CNS) greater than 100 µM.

Molecule `NCCS(=O)(=O)O` has a TGI (HCT-116 colon) greater than 100 µM, a TGI (HCT-15 colon) greater than 100 µM and a TGI (HL-60(TB) leukemia) greater than 100 µM. For the same molecule, the TGI (NCI-H226 lung) was greater than 100 µM, the TGI (OVCAR-5 ovarian) was greater than 100 µM and the TGI (SF-295 CNS) was greater than 100 µM. It also gave a TGI (SF-539 CNS) greater than 100 µM.

`CC(=O)c1[nH]c(Nc2ccc(C)cc2)c(C(=S)Nc2ccccc2)c1N` showed a TGI (HCT-116 colon) of 35.4 µM, a TGI (HCT-15 colon) of 46.1 µM and a TGI (HL-60(TB) leukemia) of 54.1 µM. The TGI (NCI-H226 lung) was 32.4 µM, the TGI (OVCAR-5 ovarian) was greater than 100 µM and the TGI (SF-295 CNS) was 39.7 µM. The TGI (SF-539 CNS) was greater than 100 µM.

With `O=Cc1c(Br)[nH]c2ccccc12` the TGI (HCT-116 colon) was greater than 100 µM, the TGI (HCT-15 colon) was greater than 100 µM and the TGI (HL-60(TB) leukemia) was greater than 100 µM. For the same molecule, the TGI (NCI-H226 lung) was greater than 100 µM, the TGI (OVCAR-5 ovarian) was greater than 100 µM and the TGI (SF-295 CNS) was greater than 100 µM. It also gave a TGI (SF-539 CNS) greater than 100 µM.

In the case of `O=C(c1ccccc1O)c1cc(-c2ncc3c(=O)c4ccccc4oc3n2)c(-c2ccccc2O)[nH]c1=O`, the TGI (HCT-116 colon) was 47.4 µM, the TGI (HCT-15 colon) was 71 µM and the TGI (HL-60(TB) leukemia) was 53.2 µM. It also gave a TGI (NCI-H226 lung) of 32.7 µM, a TGI (OVCAR-5 ovarian) of 62.8 µM and a TGI (SF-295 CNS) of 22.7 µM. For the same molecule, the TGI (SF-539 CNS) was 20.4 µM.

Work on `N#Cc1ccc(C2Oc3ccc(Cl)cc3C=C2[N+](=O)[O-])cc1` (stereo not drawn) yielded a TGI (HCT-116 colon) of 0.987 µM, a TGI (HCT-15 colon) of 4.12 µM and a TGI (HL-60(TB) leukemia) of 3.91 µM. The TGI (NCI-H226 lung) was 29.6 µM, the TGI (OVCAR-5 ovarian) was 3.98 µM and the TGI (SF-295 CNS) was 9.15 µM. It also gave a TGI (SF-539 CNS) of 3.84 µM.

`O=C(Nc1ccc(Sc2ccc(N=Nc3c(O)c(S(=O)(=O)O)cc4cc(S(=O)(=O)O)ccc34)cc2)cc1)c1ccc(N=Nc2c(O)c(S(=O)(=O)O)cc3cc(S(=O)(=O)O)ccc23)cc1` gave a TGI (HCT-116 colon) greater than 100 µM, a TGI (HCT-15 colon) of 28 µM and a TGI (HL-60(TB) leukemia) of 37.4 µM. The TGI (NCI-H226 lung) was greater than 100 µM, the TGI (OVCAR-5 ovarian) was greater than 100 µM and the TGI (SF-295 CNS) was greater than 100 µM. The TGI (SF-539 CNS) was greater than 100 µM.

Molecule `C[N+]1([O-])[C@H]2CC(OC(=O)[C@H](CO)c3ccccc3)C[C@H]1[C@H]1O[C@H]12` (stereo partly drawn) has a TGI (HCT-116 colon) greater than 100 µM, a TGI (HCT-15 colon) greater than 100 µM and a TGI (NCI-H226 lung) greater than 100 µM. The TGI (OVCAR-5 ovarian) was greater than 100 µM, the TGI (SF-295 CNS) was greater than 100 µM and the TGI (SF-539 CNS) was greater than 100 µM.

With `COc1ccc([C@H]2c3cc4c(cc3OC(O)(CO)[C@H]2C(=O)O)OCO4)c(OC)c1` (stereo partly drawn) (tested in a mixture with another compound) the TGI (HCT-116 colon) was greater than 100 µM, the TGI (HCT-15 colon) was greater than 100 µM and the TGI (HL-60(TB) leukemia) was greater than 100 µM. It also gave a TGI (NCI-H226 lung) greater than 100 µM, a TGI (OVCAR-5 ovarian) greater than 100 µM and a TGI (SF-295 CNS) greater than 100 µM. For the same molecule, the TGI (SF-539 CNS) was greater than 100 µM.

In the case of `CCOC(=O)C1=C(c2ccccc2)C12N(Cc1ccccc1)C(=O)C2(c1ccccc1)c1ccccc1` (stereo not drawn), the TGI (HCT-116 colon) was greater than 100 µM, the TGI (HCT-15 colon) was greater than 100 µM and the TGI (HL-60(TB) leukemia) was greater than 100 µM. The TGI (NCI-H226 lung) was 95.4 µM, the TGI (OVCAR-5 ovarian) was greater than 100 µM and the TGI (SF-295 CNS) was greater than 100 µM. The TGI (SF-539 CNS) was greater than 100 µM.

`O=NN1C(c2ccccc2)CCCC1c1ccccc1` (stereo not drawn) gave a TGI (HCT-116 colon) greater than 100 µM, a TGI (HCT-15 colon) greater than 100 µM and a TGI (HL-60(TB) leukemia) greater than 75.2 µM. For the same molecule, the TGI (NCI-H226 lung) was greater than 100 µM, the TGI (OVCAR-5 ovarian) was greater than 100 µM and the TGI (SF-295 CNS) was greater than 100 µM. It also gave a TGI (SF-539 CNS) greater than 100 µM.

`COc1cc(/C(=C2/O[C@@H]([C@H]3COC(C)(C)O3)[C@H]3OC(C)(C)O[C@@H]23)c2ccc3c(c2)OCO3)cc(OC)c1OC` showed a GI50 (HCT-15 colon) greater than 25 µM, a TGI (HCT-15 colon) greater than 25 µM and a GI50 (HL-60(TB) leukemia) greater than 25 µM. For the same molecule, the TGI (HL-60(TB) leukemia) was greater than 25 µM, the GI50 (NCI-H226 lung) was greater than 25 µM and the TGI (NCI-H226 lung) was greater than 25 µM. For the same molecule, the GI50 (OVCAR-5 ovarian) was 4.85 µM, the TGI (OVCAR-5 ovarian) was greater than 25 µM and the GI50 (SF-295 CNS) was greater than 25 µM. The TGI (SF-295 CNS) was greater than 25 µM, the GI50 (SF-539 CNS) was 8.05 µM and the TGI (SF-539 CNS) was greater than 25 µM.

For `O=P(O)(O)CN1CCNCCN(CP(=O)(O)O)CCN(CP(=O)(O)O)CCNCC1`, the outcome (HCT-15 colon) was “inactive”, the GI50 (HL-60(TB) leukemia) was 48900 µM and the TGI (HL-60(TB) leukemia) was 55.8 µM. The outcome (NCI-H226 lung) was “inactive”, the outcome (OVCAR-5 ovarian) was “inactive” and the outcome (SF-295 CNS) was “inactive”. For the same molecule, the outcome (SF-539 CNS) was “inactive”.

Molecule `O=C1c2cc3c(cc2CC1Cc1ccc2c(c1)CCC2)CCC3` (stereo not drawn) has a TGI (HCT-116 colon) greater than 100 µM, a TGI (HCT-15 colon) greater than 100 µM and a TGI (HL-60(TB) leukemia) greater than 100 µM. The TGI (NCI-H226 lung) was 65 µM, the TGI (OVCAR-5 ovarian) was greater than 100 µM and the TGI (SF-295 CNS) was greater than 100 µM. For the same molecule, the TGI (SF-539 CNS) was greater than 100 µM.

Work on `O=C(c1ccccc1)c1c(C(F)(F)F)n([O-])c2cc(F)c(F)cc2[n+]1=O` yielded a TGI (HL-60(TB) leukemia) of 1.55 µM, a TGI (NCI-H226 lung) of 5.69 µM and a TGI (OVCAR-5 ovarian) of 2.98 µM. It also gave a TGI (SF-295 CNS) of 5.66 µM and a TGI (SF-539 CNS) of 1.67 µM.

For `O=C(CSCC(=O)N/N=C\c1ccccc1F)N/N=C\c1ccccc1F`, the TGI (HCT-116 colon) was greater than 100 µM, the TGI (HCT-15 colon) was greater than 100 µM and the TGI (HL-60(TB) leukemia) was greater than 100 µM. For the same molecule, the TGI (NCI-H226 lung) was greater than 100 µM, the TGI (SF-295 CNS) was greater than 100 µM and the TGI (SF-539 CNS) was greater than 100 µM.

`CCCCOc1ccc2c(c1)CC[C@@H]1[C@@H]2CC[C@]2(C)C(=O)N(CCCC)C(=O)C[C@@H]12` gave a TGI (HCT-116 colon) greater than 100 µM, a TGI (HCT-15 colon) greater than 100 µM and a TGI (HL-60(TB) leukemia) greater than 100 µM. For the same molecule, the TGI (NCI-H226 lung) was greater than 100 µM, the TGI (OVCAR-5 ovarian) was greater than 100 µM and the TGI (SF-295 CNS) was greater than 100 µM.

Work on `COc1cc(-c2nc3cc(Cl)c(Cl)cc3[nH]2)ccc1OCC(=O)N=Nc1c(O)[nH]c2ccc(Cl)cc12` yielded a GI50 (HCT-116 colon) of 0.284 µM, a TGI (HCT-116 colon) of 1.2 µM and a GI50 (HCT-15 colon) greater than 100 µM. The TGI (HCT-15 colon) was greater than 100 µM.
